Measured values: US9085593B2, “Therapeutic agent for arthrosis” (SANSHO CO., LTD., priority 2011, dated 2015)
Several values for one entry are separate records, joined by “and”; a condition that tells them apart may be missing. Equal values may be shown once.

System: osteoarthritis in rabbit knee
Test: Swelling assessment (articular swelling of both hind limbs), rabbit knee osteoarthritis model
Format: in vivo, rabbits (Kbs:NZW)
Experimental: Twelve 11- to 12-week-old male rabbits (Kbs:NZW) were used. Rabbits were reared in separate cages (one rabbit per cage) at 14.4° C. to 24.9° C. under light (12 hours from 7:00 am to 7:00 pm) with continuous ventilation. Rabbits were allowed to eat 150 g of feed (CR-3, CLEA Japan, Inc.) per day and to drink tap water.
(9Z)-9-Octadecenoic acid-(2-hydroxy-2-oxide-1,2-oxaphospholan-4-yl)methyl ester sodium salt (C18:1-cPA; hereafter, referred to as “ScPA”) was used.
Hair in the vicinity of the knee joint of the right hind limb of a rabbit was shaved using electrical clippers under deep anesthesia, and the shaved area was disinfected with Isodine. The outer coat on the medial aspect of the right hind limb was incised with a surgical knife, the boundary between the medial aspect and the articular capsule of the patellofemoral ligament was further incised, and the medial patellofemoral ligament was then dissected. Thereafter, the articular capsule was spread wide open to expose the medial meniscus, which was then completely removed. Following the removal of the meniscus, tissue and epidermis in the vicinity of the articular capsule were sutured. At the time of suturing, the site of operation was washed with physiological saline (titer: 500 mg/20 ml) containing antibiotics (Viccillin, Meiji Seika Pharma Co., Ltd.).
After the model animals were prepared, they were divided into two groups each consisting of 6 individuals while averaging body […] (i.e., the vehicle administered group of Animal Numbers 101 to 106 and the test substance (ScPA) administered group of Animal Numbers 201 to 206).
The test compound and the vehicle were administered in the manner described below. • Route of administration: into the joint cavity • Site of administration: right hind limb (treated limb) • Timing of administration: on days 7, 11, 14, 18, 21, 25, 28, 32, 35, and 39 • Dosage: Test compound: 10 μg/rabbit (volume: 0.2 ml) • Vehicle: 0.2 ml/rabbit • Means of administration: with the use of a 1.0-ml syringe (Terumo Corporation) and a 27 G injection needle (Terumo Corporation) (1-5) Pain Assessment (Weight Distribution Across both Hind Limbs) Frequency of Measurement:
Measurement was carried out 6 weeks after the treatment.
The widest areas at the joints of the right and left hind limbs were measured using digital calipers, and the articular swelling induced by osteoarthritis was determined using the following equation. Swelling (%) of treated limb (right hind limb)=[(right hind limb (mm)−left hind limb (mm))/(left hind limb (mm)[…])]×100 (1-7) Sampling of Biomaterials (day 42) and Post-Sampling Treatment

[1] = joint width, 10 μg/rabbit into joint cavity, Day 42, individual animals 201-206, listed as Test substance, sodium salt

## CCCCCCCC/C=C\CCCCCCCC(=O)OCC1COP(=O)([O-])C1.[Na+] (centres unmarked) [ScPA, (9Z)-9-Octadecenoic acid-(2-hydroxy-2-oxide-1,2-oxaphospholan-4-yl)methyl ester sodium salt]
10 μg/rabbit into joint cavity, Day 42, group mean n=6, p=0.0164 vs vehicle
  Swelling, Mean: 0.6%
10 μg/rabbit into joint cavity, Day 42, individual animals 201-206, listed as Test substance, sodium salt
  Swelling (%) of treated limb (right hind limb): −1.75% and 1.58% and 3.72% and −5.46% and 6.59% and −1.97%
Day 42, p=0.0164
  articular swelling compared with the vehicle administered group: inhibited more significantly
[1]
  Left hind limb (mm): 24.60 mm and 23.38 mm and 21.50 mm and 22.88 mm and 23.21 mm and 21.79 mm
  Right hind limb (mm): 24.17 mm and 23.75 mm and 22.30 mm and 21.63 mm and 24.74 mm and 21.36 mm
